From ChEMBL document CHEMBL1157938, “Cytotoxicity and inhibition of DNA topoisomerase I of polyhydroxylated triterpenoids and triterpenoid glycosides” (Bioorg Med Chem Lett, 2010)
The source made the active and inactive calls. The calls are words filed in the database; no cut-off is given here.

How the values were obtained:
[1] = system: A549; assay: Cytotoxicity against human A549 cells at 25 uM after 48 hrs by WST8 assay; assay type: functional, cell-based
[2] = system: PC-3; assay: Cytotoxicity against human PC3 cells at 25 uM after 48 hrs by WST8 assay; assay type: functional, cell-based
[3] = system: HL-60; assay: Cytotoxicity against human HL60 cells at 25 uM after 48 hrs by WST8 assay; assay type: functional, cell-based
[4] = system: PANC-1; assay: Cytotoxicity against human PANC1 cells at 25 uM after 48 hrs by WST8 assay; assay type: functional, cell-based
[5] = system: MRC5; assay: Cytotoxicity against human MRC5 cells at 25 uM after 48 hrs by WST8 assay; assay type: cell-based; settings: mrc5, 48 h
[6] = target: T1, DNA topoisomerase 1 (Homo sapiens, UniProt P11387); assay: Inhibition of human DNA topoisomerase 1-mediated relaxation of supercoiled DNA by gel electrophoresis
T1 sequence (P11387 whole entry): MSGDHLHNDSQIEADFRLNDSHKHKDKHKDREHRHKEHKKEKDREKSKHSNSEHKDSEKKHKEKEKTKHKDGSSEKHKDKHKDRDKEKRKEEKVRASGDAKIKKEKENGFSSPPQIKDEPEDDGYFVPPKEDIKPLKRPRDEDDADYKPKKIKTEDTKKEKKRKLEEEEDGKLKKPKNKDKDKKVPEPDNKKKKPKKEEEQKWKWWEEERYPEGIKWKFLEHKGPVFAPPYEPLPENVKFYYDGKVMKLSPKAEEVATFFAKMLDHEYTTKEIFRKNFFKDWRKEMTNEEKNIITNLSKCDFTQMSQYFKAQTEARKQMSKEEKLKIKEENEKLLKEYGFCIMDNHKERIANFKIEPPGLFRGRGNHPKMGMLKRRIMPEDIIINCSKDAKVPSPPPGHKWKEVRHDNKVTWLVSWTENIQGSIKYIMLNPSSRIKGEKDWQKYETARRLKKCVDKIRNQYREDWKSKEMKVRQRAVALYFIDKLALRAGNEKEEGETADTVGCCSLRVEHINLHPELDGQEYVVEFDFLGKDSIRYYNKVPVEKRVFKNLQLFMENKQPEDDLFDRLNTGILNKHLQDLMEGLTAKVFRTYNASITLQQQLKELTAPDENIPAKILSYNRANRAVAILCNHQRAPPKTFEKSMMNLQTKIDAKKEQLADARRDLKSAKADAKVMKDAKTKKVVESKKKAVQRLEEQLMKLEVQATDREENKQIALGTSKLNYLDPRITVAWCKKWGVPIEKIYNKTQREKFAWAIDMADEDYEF

[7] = target: DNA topoisomerase 2-alpha (Homo sapiens, UniProt P11388); assay: Inhibition of human DNA topoisomerase 2-mediated relaxation of supercoiled DNA by gel electrophoresis
DNA topoisomerase 2-alpha, sequence (P11388 whole entry): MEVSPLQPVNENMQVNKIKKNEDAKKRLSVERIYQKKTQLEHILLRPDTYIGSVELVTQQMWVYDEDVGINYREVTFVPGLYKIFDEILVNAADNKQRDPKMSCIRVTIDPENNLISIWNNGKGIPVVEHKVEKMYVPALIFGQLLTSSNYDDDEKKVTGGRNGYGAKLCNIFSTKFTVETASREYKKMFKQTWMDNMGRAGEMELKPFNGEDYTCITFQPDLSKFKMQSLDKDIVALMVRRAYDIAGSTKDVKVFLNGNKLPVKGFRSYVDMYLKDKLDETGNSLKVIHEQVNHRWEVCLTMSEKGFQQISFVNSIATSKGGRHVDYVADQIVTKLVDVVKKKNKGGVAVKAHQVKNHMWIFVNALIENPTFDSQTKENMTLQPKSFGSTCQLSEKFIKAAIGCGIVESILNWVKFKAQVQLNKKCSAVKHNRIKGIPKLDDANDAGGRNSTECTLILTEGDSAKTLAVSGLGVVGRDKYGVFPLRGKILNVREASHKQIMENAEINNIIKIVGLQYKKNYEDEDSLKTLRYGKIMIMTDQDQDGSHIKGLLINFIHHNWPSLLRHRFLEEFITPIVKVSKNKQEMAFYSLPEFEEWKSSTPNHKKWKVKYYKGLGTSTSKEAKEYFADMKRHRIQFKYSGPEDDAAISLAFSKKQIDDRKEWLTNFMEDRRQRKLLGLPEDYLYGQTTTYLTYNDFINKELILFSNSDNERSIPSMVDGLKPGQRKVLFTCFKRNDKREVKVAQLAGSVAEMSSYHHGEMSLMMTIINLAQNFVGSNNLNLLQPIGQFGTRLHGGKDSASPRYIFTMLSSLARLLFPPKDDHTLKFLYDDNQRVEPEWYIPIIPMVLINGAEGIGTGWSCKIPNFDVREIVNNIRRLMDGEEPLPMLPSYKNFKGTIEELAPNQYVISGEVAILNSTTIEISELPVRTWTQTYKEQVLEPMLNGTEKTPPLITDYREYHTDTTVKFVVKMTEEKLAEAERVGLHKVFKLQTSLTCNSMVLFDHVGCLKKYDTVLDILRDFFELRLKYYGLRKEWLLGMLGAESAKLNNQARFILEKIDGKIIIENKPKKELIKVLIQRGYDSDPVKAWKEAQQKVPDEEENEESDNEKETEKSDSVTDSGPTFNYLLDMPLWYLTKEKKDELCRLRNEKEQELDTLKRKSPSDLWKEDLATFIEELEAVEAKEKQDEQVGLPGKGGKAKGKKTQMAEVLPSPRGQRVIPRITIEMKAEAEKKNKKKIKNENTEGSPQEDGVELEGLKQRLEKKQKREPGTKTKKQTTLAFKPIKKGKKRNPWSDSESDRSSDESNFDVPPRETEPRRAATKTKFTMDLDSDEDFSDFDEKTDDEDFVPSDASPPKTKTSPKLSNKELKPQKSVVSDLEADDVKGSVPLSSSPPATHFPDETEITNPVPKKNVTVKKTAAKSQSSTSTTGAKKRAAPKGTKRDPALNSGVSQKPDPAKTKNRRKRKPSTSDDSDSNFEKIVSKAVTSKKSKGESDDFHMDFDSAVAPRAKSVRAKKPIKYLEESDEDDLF

| Compound | growth inhibition (GI) [1] | growth inhibition (GI) [2] | growth inhibition (GI) [3] | growth inhibition (GI) [4] | growth inhibition (GI) [5] | IC50 [6] [µM] | IC50 [7] [µM] |
| --- | --- | --- | --- | --- | --- | --- | --- |
| C[C@@H]1O[C@H](O[C@H]2CC[C@]3(C)[C@H]4CC=C5[C@@H]6CC(C)(C)CC[C@]6(C(=O)O[C@@H]6O[C@H](CO)[C@@H](O)[C@H](O)[C@H]6O)CC[C@@]5(C(=O)O)[C@]4(C)CC[C@H]3C2(C)C)[C@@H](O)[C@H](O)[C@H]1O | inactive | inactive | inactive | inactive | Not Active |  |  |
| C[C@@H]1O[C@H](O[C@@H]2[C@@H](O)[C@H](O[C@H]3CC[C@]4(C)[C@H]5CC=C6[C@@H]7CC(C)(C)CC[C@]7(C(=O)O[C@@H]7O[C@H](CO)[C@@H](O)[C@H](O)[C@H]7O)CC[C@@]6(C)[C@]5(C)CC[C@H]4C3(C)C)O[C@H](C(=O)O)[C@H]2O)[C@H](O)[C@H](O)[C@H]1O | inactive | inactive | inactive | inactive | Not Active |  |  |
| CC1(C)C[C@H]2C3=CC[C@@H]4[C@@]5(C)CC[C@H](O[C@@H]6O[C@H](C(=O)O)[C@@H](O)[C@H](O[C@@H]7O[C@@H](CO)[C@H](O)[C@H]7O)[C@H]6O[C@@H]6O[C@H](CO)[C@H](O)[C@H](O)[C@H]6O)C(C)(C)[C@@H]5CC[C@@]4(C)[C@]3(C)[C@@H](O)[C@@H](O)[C@@]2(CO)[C@@H](O)[C@@H]1O [AESCULIOSIDE IA] | inactive | inactive | inactive | inactive | Not Active |  |  |
| CC1(C)C[C@H]2C3=CC[C@@H]4[C@@]5(C)CC[C@H](O[C@@H]6O[C@H](C(=O)O)[C@@H](O)[C@H](O[C@@H]7O[C@@H](CO)[C@H](O)[C@H]7O)[C@H]6O[C@@H]6O[C@H](CO)[C@@H](O)[C@H](O)[C@H]6O)[C@](C)(CO)[C@@H]5CC[C@@]4(C)[C@]3(C)[C@@H](O)[C@@H](O)[C@@]2(CO)[C@@H](O)[C@@H]1O [AESCULIOSIDE IB] | inactive | inactive | inactive | inactive | Not Active |  |  |
| CC1(C)C[C@H]2C3=CC[C@@H]4[C@@]5(C)CC[C@H](O[C@@H]6O[C@H](C(=O)O)[C@@H](O)[C@H](O[C@@H]7O[C@@H](CO)[C@H](O)[C@H]7O)[C@H]6O[C@@H]6O[C@H](CO)[C@H](O)[C@H](O)[C@H]6O)C(C)(C)[C@@H]5CC[C@@]4(C)[C@]3(C)C[C@@H](O)[C@@]2(CO)[C@@H](O)[C@@H]1O [AESCULIOSIDE IC] | inactive | inactive | inactive | inactive | Not Active |  |  |
| CC1(C)C[C@H]2C3=CC[C@@H]4[C@@]5(C)CC[C@H](O[C@@H]6O[C@H](C(=O)O)[C@@H](O)[C@H](O[C@@H]7O[C@@H](CO)[C@H](O)[C@H]7O)[C@H]6O[C@@H]6O[C@H](CO)[C@@H](O)[C@H](O)[C@H]6O)[C@](C)(CO)[C@@H]5CC[C@@]4(C)[C@]3(C)C[C@@H](O)[C@@]2(CO)[C@@H](O)[C@@H]1O [AESCULIOSIDE ID] | inactive | inactive | inactive | inactive | Not Active |  |  |
| CC1(C)C[C@H]2C3=CC[C@@H]4[C@@]5(C)CC[C@H](O[C@@H]6O[C@H](C(=O)O)[C@@H](O)[C@H](O[C@@H]7O[C@@H](CO)[C@H](O)[C@H]7O)[C@H]6O)[C@](C)(CO)[C@@H]5CC[C@@]4(C)[C@]3(C)C[C@@H](O)[C@@]2(CO)[C@@H](O)[C@@H]1O [AESCULIOSIDE IE] | inactive | inactive | inactive | inactive | Not Active |  |  |
| C/C=C(\C)C(=O)O[C@H]1[C@H](OC(C)=O)[C@]2(CO)[C@H](O)C[C@]3(C)C(=CC[C@@H]4[C@@]5(C)CC[C@H](O[C@@H]6O[C@H](C(=O)O)[C@@H](O)[C@H](O[C@@H]7O[C@@H](CO)[C@H](O)[C@H]7O)[C@H]6O[C@@H]6O[C@H](CO)[C@@H](O)[C@H](O)[C@H]6O)[C@](C)(CO)[C@@H]5CC[C@]43C)[C@@H]2CC1(C)C [AESCULIOSIDE IIH] | inactive | inactive | inactive | inactive | Not Active |  |  |
| CC1(C)C[C@H]2C3=CC[C@@H]4[C@@]5(C)CC[C@H](O)C(C)(C)[C@@H]5CC[C@@]4(C)[C@]3(C)C[C@@H](O)[C@@]2(CO)[C@@H](O)[C@@H]1O [BARRINGTOGENOL C] | inactive | inactive | inactive | inactive | Not Active |  |  |
| CC1(C)CC[C@]2(C(=O)O[C@@H]3O[C@H](CO)[C@@H](O)[C@H](O)[C@H]3O)CC[C@]3(C)C(=CC[C@@H]4[C@@]5(C)CC[C@H](O[C@@H]6O[C@H](C(=O)O)[C@@H](O)[C@H](O)[C@H]6O)C(C)(C)[C@@H]5CC[C@]43C)[C@@H]2C1 [CHIKUSETSUSAPONIN IVA] | inactive | inactive | inactive | inactive | Not Active |  |  |
| CC(C)=CCC[C@](C)(O[C@@H]1O[C@H](CO[C@@H]2O[C@H](CO)[C@@H](O)[C@H](O)[C@H]2O)[C@@H](O)[C@H](O)[C@H]1O)[C@H]1CC[C@]2(C)[C@@H]1[C@H](O)C[C@@H]1[C@@]3(C)CC[C@H](O[C@@H]4O[C@H](CO)[C@@H](O)[C@H](O)[C@H]4O[C@@H]4O[C@H](CO)[C@@H](O)[C@H](O)[C@H]4O)C(C)(C)[C@@H]3CC[C@]12C [GINSENOSIDE RB1] | inactive | inactive | inactive | inactive |  | > 250 | > 250 |
| CC(C)=CCC[C@](C)(O[C@@H]1O[C@H](CO[C@@H]2OC[C@@H](O)[C@H](O)[C@H]2O)[C@@H](O)[C@H](O)[C@H]1O)[C@H]1CC[C@]2(C)[C@@H]1[C@H](O)C[C@@H]1[C@@]3(C)CC[C@H](O[C@@H]4O[C@H](CO)[C@@H](O)[C@H](O)[C@H]4O[C@@H]4O[C@H](CO)[C@@H](O)[C@H](O)[C@H]4O)C(C)(C)[C@@H]3CC[C@]12C [GINSENOSIDE RB3] | inactive | inactive | inactive | inactive |  | > 250 | > 250 |
| CC(C)=CCC[C@](C)(O[C@@H]1O[C@H](CO)[C@@H](O)[C@H](O)[C@H]1O)[C@H]1CC[C@]2(C)[C@@H]1[C@H](O)C[C@@H]1[C@@]3(C)CC[C@H](O[C@@H]4O[C@H](CO)[C@@H](O)[C@H](O)[C@H]4O[C@@H]4O[C@H](CO)[C@@H](O)[C@H](O)[C@H]4O)C(C)(C)[C@@H]3CC[C@]12C [GINSENOSIDE RD] | inactive | inactive | inactive | inactive |  | > 250 | > 250 |
| CC(C)=CCC[C@](C)(O[C@@H]1O[C@H](CO)[C@@H](O)[C@H](O)[C@H]1O)[C@H]1CC[C@]2(C)[C@@H]1[C@H](O)C[C@@H]1[C@@]3(C)CC[C@H](O)C(C)(C)[C@@H]3[C@@H](O[C@@H]3O[C@H](CO)[C@@H](O)[C@H](O)[C@H]3O[C@@H]3O[C@@H](C)[C@H](O)[C@@H](O)[C@H]3O)C[C@]12C [GINSENOSIDE RE] | inactive | inactive | inactive | inactive |  | > 250 | > 250 |
| CC(C)=CCC[C@](C)(O[C@@H]1O[C@H](CO[C@@H]2O[C@H](CO)[C@@H](O)[C@H](O)[C@H]2O)[C@@H](O)[C@H](O)[C@H]1O)[C@H]1CC[C@]2(C)[C@@H]1[C@H](O)C[C@@H]1[C@@]3(C)CC[C@H](O[C@@H]4O[C@H](CO)[C@@H](O)[C@H](O)[C@H]4O)C(C)(C)[C@@H]3CC[C@]12C [GYPENOSIDE XVII] | inactive | inactive | inactive | inactive |  | > 250 | > 250 |
